Data published in PMC10608790, “Structural Diversity and Biological Activity of Cyanopeptolins Produced by Nostoc edaphicum CCNP1411” (Marine Drugs, 2023).
Like-named read-outs stand apart in the source and are kept apart here.

Columns and labels:
thrombin = thrombin (Homo sapiens, UniProt P00734); assay: Thrombin inhibition assay; assay type: biochemical; conditions: highest concentration in the assay 45 µg × mL−1
Procedure: (§1) The enzyme inhibitory activity of cyanopeptolins was assayed against trypsin [108], chymotrypsin, thrombin [109], and elastase as described before. In brief, the samples were prepared and serially diluted (1 mg, 1:1—1:10,000 times) in 1% DMSO; the standard inhibitors: aprotinin (trypsin and chymotrypsin) AEBSF 4-(2-aminoethyl)benzenesulfonyl fluoride hydrochloride (thrombin), elastatinal (elastase) (all from Sigma Aldrich; St. Louis, MO, USA) were also prepared in 1% DMSO. DMSO (1%) without the addition of the enzyme served as a negative control. All tests were carried out in triplicates. After the incubation of the assay mixtures, the absorbances were measured at 405 nm (Varioskan Flash Thermo Fisher Scientific OY, Vantaa, Finland). The reduction in enzyme activity greater than 50% was considered as significant.

elastase [1] = molecular target: T1, elastase (Sus scrofa, UniProt P00772); assay: Elastase inhibition assay; assay type: biochemical; conditions: for IC50: read-out: E (elastase) IC50; for E (elastase) inhibition class: class symbol instead of IC50
T1 sequence (P00772 27-266): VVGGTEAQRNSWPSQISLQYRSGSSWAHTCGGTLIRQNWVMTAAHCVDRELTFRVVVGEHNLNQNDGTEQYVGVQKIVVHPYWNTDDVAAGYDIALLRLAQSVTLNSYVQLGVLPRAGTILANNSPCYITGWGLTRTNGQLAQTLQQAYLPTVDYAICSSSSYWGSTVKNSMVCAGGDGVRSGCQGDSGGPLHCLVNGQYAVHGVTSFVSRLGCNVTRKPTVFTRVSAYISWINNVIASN
Procedure: as §1

[2] = system: human cervical cancer (HeLa) cell line; assay: MTT assay on HeLa cells; assay type: cell-based; conditions: 200 µg × mL−1, 24 h
Procedure: The cytotoxic activity of the selected 17 CPs against the HeLa cervical cancer cell line (Merck KGaA, Darmstadt, Germany) was assessed with the MTT (3-(4,5-dimethylthiazole-2-yl)-2,5-diphenyltetrazolium bromide) assay according to Felczykowska et al.. HeLa cells were seeded at 4 × 10^3 cells per well in DMEM medium (Merck KGaA) supplemented with 10% (v/v) fetal bovine serum (Merck KGaA) and penicillin-streptomycin solution (1% v/v, stock solution 50 u and 0.05 mg × mL^−1, respectively; Merck KGaA). Cells were allowed to attach overnight, and then the tested compounds prepared in 1% DMSO were added. After incubation (24 h), 25 µL of MTT solution (4 mg × mL^−1; Merck KGaA) were added and then the samples were incubated for another 4 h. The formazan crystals were dissolved with 100% DMSO and absorbance was measured with Spectramax i3 (Molecular Deviecs, LLC San Jose, CA, USA). The reduction in cell viability greater than 60% was considered as significant.

breast cancer cell line = system: breast cancer cell line; parameters: method as in PMID 29949853; conditions: up to 500 µg × mL−1; cited from earlier work
breast cancer cells = system: breast cancer cells; parameters: method as in PMID 29405541; conditions: cited from earlier work
H-460 lung cancer cells = system: H-460 lung cancer cells; parameters: method as in PMID 18163584; conditions: cited from earlier work
[3] = system: neuro-2a neuroblastoma cells; parameters: method as in PMID 18163584; conditions: cited from earlier work
[4] = system: KB human epithelial carcinoma cells; parameters: method as in PMID 12762794; conditions: cited from earlier work
enzymes = system: enzymes; parameters: method as in PMID 20028081; conditions: cited from earlier work
chymotrypsin = chymotrypsin (Bos taurus, UniProt P00766); assay: Chymotrypsin inhibition assay; assay type: biochemical; conditions: class symbol instead of IC50
Procedure: as §1, with “In” for “The enzyme inhibitory activity of cyanopeptolins was assayed against trypsin [108], chymotrypsin, thrombin [109], and elastase as described before. In”

trypsin = molecular target: T2, trypsin (Bos taurus, UniProt P00760); assay: Trypsin inhibition assay; assay type: biochemical; conditions: for activity against serine proteases (in words): Arg2-containing CPs lacking the side-chain, Table 1 enzymes; for TRY (trypsin) inhibition class: class symbol instead of IC50
T2 sequence (P00760 24-246): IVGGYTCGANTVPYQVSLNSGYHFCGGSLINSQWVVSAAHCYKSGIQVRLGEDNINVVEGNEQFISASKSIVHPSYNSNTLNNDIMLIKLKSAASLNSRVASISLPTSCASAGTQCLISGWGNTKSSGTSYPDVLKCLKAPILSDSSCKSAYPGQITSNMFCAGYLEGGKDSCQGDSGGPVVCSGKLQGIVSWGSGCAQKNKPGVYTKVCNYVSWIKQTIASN
Procedure: as §1

elastase [5] = molecular target: T1, elastase; parameters: method as in doi:10.1016/j.tet.2019.04.046; conditions: cited from earlier work
HeLa S3 cells = system: HeLa S3 cells; parameters: method as in doi:10.1016/j.tet.2019.04.046; conditions: cited from earlier work

CCCC(=O)NC(CC(=O)O)C(=O)NC1C(=O)NC(CC(C)C)C(=O)NC2CCC(O)N(C2=O)C(Cc2ccccc2)C(=O)N(C)C(Cc2ccccc2)C(=O)NC(C(C)C)C(=O)OC1C (stereo not drawn) [CP 919, [Thr + Leu + Ahp + Phe + MePhe + Val]Asp + BA]
TRB (thrombin) inhibition class (thrombin): − (not active (inhibition below 50%)) | IC50 (elastase [1]): 5.71 µM | reduction in cell viability versus control [2]: 97.6%

CC(=O)NC(CC(=O)O)C(=O)NC1C(=O)NC(Cc2ccc(O)cc2)C(=O)NC2CCC(O)N(C2=O)C(Cc2ccccc2)C(=O)N(C)C(Cc2ccccc2)C(=O)NC(C(C)C)C(=O)OC1C (stereo not drawn) [CP 941, [Thr + Tyr + Ahp + Phe + MePhe + Val]Asp + Ac]
TRB (thrombin) inhibition class (thrombin): − (not active (inhibition below 50%)) | E (elastase) inhibition class (elastase [1]): − (not active (inhibition below 50%))

CCCC(=O)NC(CC(=O)O)C(=O)NC1C(=O)NC(CC(C)C)C(=O)NC2CCC(O)N(C2=O)C(Cc2ccccc2)C(=O)N(C)C(Cc2ccc(OC)cc2)C(=O)NC(C(C)C)C(=O)OC1C (stereo not drawn) [CP 949, [Thr + Leu + Ahp + Phe + diMeTyr + Val]Asp + BA]
TRB (thrombin) inhibition class (thrombin): − (not active (inhibition below 50%)) | IC50 (elastase [1]): 3.32 µM | reduction in cell viability versus control [2]: 71.5%

CCCC(=O)N[C@@H](CC(=O)O)C(=O)N[C@@H]1C(=O)N[C@@H](CCCNC(=N)N)C(=O)N[C@H]2CC[C@@H](O)N(C2=O)[C@@H](Cc2ccccc2)C(=O)N(C)[C@@H](Cc2ccccc2)C(=O)N[C@@H](C(C)C)C(=O)O[C@@H]1C [CP 962, [Thr + Arg + Ahp + Phe + MePhe + Val]Asp + BA]
cytotoxic activity (in words) (breast cancer cell line): no effects were observed

CCCC(=O)NC(CC(=O)O)C(=O)NC1C(=O)NC(Cc2ccccc2)C(=O)NC2CCC(O)N(C2=O)C(Cc2ccccc2)C(=O)N(C)C(Cc2ccc(OC)cc2)C(=O)NC(C(C)C)C(=O)OC1C (stereo not drawn) [CP 983, [Thr + Phe + Ahp + Phe + diMeTyr + Val]Asp + BA]
TRB (thrombin) inhibition class (thrombin): − (not active (inhibition below 50%)) | E (elastase) inhibition class (elastase [1]): − (not active (inhibition below 50%))

CCCC(=O)N[C@@H](CC(=O)O)C(=O)N[C@@H]1C(=O)N[C@@H](Cc2ccc(O)cc2)C(=O)N[C@H]2CC[C@@H](O)N(C2=O)[C@@H](Cc2ccccc2)C(=O)N(C)[C@@H](Cc2ccc(O)cc2)C(=O)N[C@@H](C(C)C)C(=O)O[C@@H]1C [CP 985, [Thr + Tyr + Ahp + Phe + MeTyr + Val]Asp + BA]
cytotoxic activity (in words) (breast cancer cell line): no effects were observed

CCCCCC(=O)NC(CC(=O)O)C(=O)NC1C(=O)NC(CCCNC(=N)N)C(=O)NC2CCC(O)N(C2=O)C(Cc2ccccc2)C(=O)N(C)C(Cc2ccccc2)C(=O)NC(C(C)C)C(=O)OC1C (stereo not drawn) [CP 990, [Thr + Arg + Ahp + Phe + MePhe + Val]Asp + HA]
TRB (thrombin) inhibition class (thrombin): − (not active (inhibition below 50%)) | E (elastase) inhibition class (elastase [1]): − (not active (inhibition below 50%))

CCCC(=O)NC(CC(=O)O)C(=O)NC1C(=O)NC(Cc2ccc(O)cc2)C(=O)NC2CCC(O)N(C2=O)C(Cc2ccccc2)C(=O)N(C)C(Cc2ccc(OC)cc2)C(=O)NC(C(C)C)C(=O)OC1C (stereo not drawn) [CP 999, [Thr + Tyr + Ahp + Phe + diMeTyr + Val]Asp + BA]
TRB (thrombin) inhibition class (thrombin): − (not active (inhibition below 50%)) | E (elastase) inhibition class (elastase [1]): − (not active (inhibition below 50%))

C/C=C1\NC(=O)[C@@H](NC(=O)[C@@H](NC(=O)[C@H](C)NC(=O)CCC)[C@@H](C)O)[C@@H](C)OC(=O)[C@H](C(C)C)NC(=O)[C@H](Cc2ccc(O)cc2)N(C)C(=O)[C@H](Cc2ccccc2)N2C(=O)[C@H](CC[C@H]2O)NC1=O [molassamide]
effect on elastase-mediated migration (in words) (breast cancer cells): inhibiting

CCCC(=O)N[C@@H](CCC(N)=O)C(=O)N[C@@H]1C(=O)N[C@@H](CCCNC(N)=O)C(=O)N[C@H]2CC[C@@H](O)N(C2=O)[C@@H]([C@@H](C)CC)C(=O)N(C)[C@@H](Cc2ccc(OC)c(Br)c2)C(=O)N[C@@H](C(C)C)C(=O)O[C@@H]1C [symplocamide A]
cytotoxic effect (in words) (H-460 lung cancer cells): affected | cytotoxic effect (in words) [3]: affected

CCCC(=O)N[C@H](C(=O)N[C@@H]1C(=O)N[C@@H](CC(C)C)C(=O)N[C@H]2CC[C@@H](O)N(C2=O)[C@@H](CC(C)C)C(=O)N(C)[C@@H](Cc2ccccc2)C(=O)N[C@@H](C(C)C)C(=O)O[C@@H]1C)C(C)C [tasipeptin A]
cytotoxic effect (in words) [4]: cytotoxic

CCCC(=O)N[C@@H]1C(=O)N[C@@H](CC(C)C)C(=O)N[C@H]2CC[C@@H](O)N(C2=O)[C@@H](CC(C)C)C(=O)N(C)[C@@H](Cc2ccccc2)C(=O)N[C@@H](C(C)C)C(=O)O[C@@H]1C [tasipeptin B]
cytotoxic effect (in words) [4]: cytotoxic

Micropeptin MZ771
effect on the activity of enzymes (in words) (enzymes): did not affect the activity of enzymes

[Thr + Arg + Ahp + Phe + MePhe + Val] [CP 778]
CHY (chymotrypsin) inhibition class (chymotrypsin): − (not active (inhibition below 50%)) | TRB (thrombin) inhibition class (thrombin): − (not active (inhibition below 50%)) | E (elastase) inhibition class (elastase [1]): − (not active (inhibition below 50%)) | activity against serine proteases (in words) (trypsin): not active | TRY (trypsin) inhibition class (trypsin): − (not active (inhibition below 50%))

[Thr + Arg + Ahp + Phe + diMeTyr + Val] [CP 809]
CHY (chymotrypsin) inhibition class (chymotrypsin): − (not active (inhibition below 50%)) | TRB (thrombin) inhibition class (thrombin): − (not active (inhibition below 50%)) | E (elastase) inhibition class (elastase [1]): − (not active (inhibition below 50%)) | activity against serine proteases (in words) (trypsin): not active | TRY (trypsin) inhibition class (trypsin): − (not active (inhibition below 50%))

[Thr + Phe + Ahp + Phe + diMeTyr + Val]Asp + HA [CP 1011]
CHY (chymotrypsin) inhibition class (chymotrypsin): − (not active (inhibition below 50%)) | TRB (thrombin) inhibition class (thrombin): − (not active (inhibition below 50%)) | E (elastase) inhibition class (elastase [1]): − (not active (inhibition below 50%)) | TRY (trypsin) inhibition class (trypsin): − (not active (inhibition below 50%))

[Thr + Tyr + Ahp + Phe + MePhe + Val]Asp + OA [CP 1025]
CHY (chymotrypsin) inhibition class (chymotrypsin): +/− (low activity (inhibition between 50 and 60%)) | TRB (thrombin) inhibition class (thrombin): − (not active (inhibition below 50%)) | E (elastase) inhibition class (elastase [1]): − (not active (inhibition below 50%)) | TRY (trypsin) inhibition class (trypsin): − (not active (inhibition below 50%))

kyanamide
IC50 (elastase [5]): 0.00013 µM | cytotoxic effect (in words) (HeLa S3 cells): moderately cytotoxic
